According to ChEMBL document CHEMBL5291721, “A preclinical secondary pharmacology resource illuminates target-adverse drug reaction associations of marketed drugs” (Nat Commun, 2023):

How the values were obtained:
[1] = target: Gamma-aminobutyric acid receptor subunit alpha-1/alpha-2/beta-2/gamma-2 (Homo sapiens, UniProt P14867+P18507+P47869+P47870); type: protein-complex assay
[2] = target: T1, Gamma-aminobutyric acid receptor subunit alpha-1 (Rattus norvegicus, UniProt P62813)
[3] = target: T2, Muscarinic acetylcholine receptor M1 (Homo sapiens, UniProt P11229); type: functional, cell-based
T2 sequence (P11229 whole entry): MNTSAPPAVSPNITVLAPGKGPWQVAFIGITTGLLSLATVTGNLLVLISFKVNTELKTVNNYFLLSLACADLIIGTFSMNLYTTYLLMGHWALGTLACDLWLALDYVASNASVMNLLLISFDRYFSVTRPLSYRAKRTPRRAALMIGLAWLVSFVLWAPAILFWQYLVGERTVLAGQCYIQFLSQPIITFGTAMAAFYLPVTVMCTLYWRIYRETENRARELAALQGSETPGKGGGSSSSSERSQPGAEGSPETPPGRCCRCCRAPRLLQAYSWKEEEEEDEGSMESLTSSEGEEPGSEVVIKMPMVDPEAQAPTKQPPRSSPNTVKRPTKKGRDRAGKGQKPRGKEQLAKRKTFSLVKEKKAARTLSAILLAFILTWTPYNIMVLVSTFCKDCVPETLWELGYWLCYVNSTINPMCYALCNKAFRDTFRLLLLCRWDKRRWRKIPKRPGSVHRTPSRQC

[4] = target: T2, Muscarinic acetylcholine receptor M1; type: functional, cell-based; remark: listed apart in the source
[5] = target: cGMP-inhibited 3',5'-cyclic phosphodiesterase 3A (Homo sapiens, UniProt Q14432); type: functional
[6] = target: T1, Gamma-aminobutyric acid receptor subunit alpha-1; remark: listed apart in the source
[7] = target: Sodium-dependent noradrenaline transporter (Homo sapiens, UniProt P23975)
[8] = target: Kappa-type opioid receptor (Homo sapiens, UniProt P41145)
[9] = target: T3, Alpha-2C adrenergic receptor (Homo sapiens, UniProt P18825); type: functional
T3 sequence (P18825 whole entry): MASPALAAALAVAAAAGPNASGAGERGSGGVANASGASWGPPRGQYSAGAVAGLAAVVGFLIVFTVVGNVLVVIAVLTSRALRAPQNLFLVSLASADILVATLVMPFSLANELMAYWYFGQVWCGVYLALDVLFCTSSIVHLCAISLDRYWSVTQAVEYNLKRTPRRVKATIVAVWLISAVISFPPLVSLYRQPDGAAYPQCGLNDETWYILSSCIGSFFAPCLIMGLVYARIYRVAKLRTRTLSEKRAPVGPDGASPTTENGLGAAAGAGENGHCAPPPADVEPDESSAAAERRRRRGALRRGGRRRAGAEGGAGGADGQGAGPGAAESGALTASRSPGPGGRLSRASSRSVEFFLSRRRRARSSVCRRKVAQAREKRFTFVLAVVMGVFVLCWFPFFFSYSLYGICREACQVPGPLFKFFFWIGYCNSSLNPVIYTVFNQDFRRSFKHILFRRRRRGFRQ

[10] = target: Delta-type opioid receptor (Homo sapiens, UniProt P41143)
[11] = target: D(3) dopamine receptor (Homo sapiens, UniProt P35462)
[12] = target: T4, 5-hydroxytryptamine receptor 2C (Homo sapiens, UniProt P28335)
T4 sequence (P28335 whole entry): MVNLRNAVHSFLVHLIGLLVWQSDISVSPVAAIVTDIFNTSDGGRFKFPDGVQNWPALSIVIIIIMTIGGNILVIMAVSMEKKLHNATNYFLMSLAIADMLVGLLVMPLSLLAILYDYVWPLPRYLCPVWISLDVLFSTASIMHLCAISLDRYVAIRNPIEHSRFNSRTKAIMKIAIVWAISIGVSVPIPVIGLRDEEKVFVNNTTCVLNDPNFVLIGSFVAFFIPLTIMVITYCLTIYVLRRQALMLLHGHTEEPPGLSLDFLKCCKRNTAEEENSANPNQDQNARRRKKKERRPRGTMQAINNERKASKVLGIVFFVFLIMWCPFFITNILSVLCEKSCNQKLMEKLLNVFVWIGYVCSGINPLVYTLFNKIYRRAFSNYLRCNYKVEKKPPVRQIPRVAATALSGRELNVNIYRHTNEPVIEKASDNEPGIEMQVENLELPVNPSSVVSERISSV

[13] = target: Adenosine receptor A2a (Homo sapiens, UniProt P29274)
[14] = target: Glutamate receptor ionotropic, NMDA 1 (Rattus norvegicus, UniProt P35439)
[15] = target: Histamine H1 receptor (Homo sapiens, UniProt P35367)
[16] = target: 5-hydroxytryptamine receptor 2B (Homo sapiens, UniProt P41595); type: functional, cell-based
[17] = target: T5, 5-hydroxytryptamine receptor 3A (Homo sapiens, UniProt P46098); type: functional
T5 sequence (P46098 whole entry): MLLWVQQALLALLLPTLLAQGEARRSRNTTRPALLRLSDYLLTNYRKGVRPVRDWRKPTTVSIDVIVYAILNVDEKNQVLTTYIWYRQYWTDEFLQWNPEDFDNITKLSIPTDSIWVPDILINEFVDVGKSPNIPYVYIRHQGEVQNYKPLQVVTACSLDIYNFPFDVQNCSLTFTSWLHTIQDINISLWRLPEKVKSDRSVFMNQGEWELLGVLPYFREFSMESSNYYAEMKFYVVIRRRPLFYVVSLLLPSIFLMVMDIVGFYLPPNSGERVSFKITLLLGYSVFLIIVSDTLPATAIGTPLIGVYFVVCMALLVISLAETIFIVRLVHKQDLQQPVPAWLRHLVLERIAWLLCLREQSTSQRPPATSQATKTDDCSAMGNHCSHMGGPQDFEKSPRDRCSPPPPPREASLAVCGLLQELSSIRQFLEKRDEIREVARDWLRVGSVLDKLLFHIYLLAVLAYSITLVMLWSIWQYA
Further: assay procedure not described here.

Gamma-aminobutyric acid receptor subunit alpha-1/alpha-2/beta-2/gamma-2, sequence (P14867 whole entry): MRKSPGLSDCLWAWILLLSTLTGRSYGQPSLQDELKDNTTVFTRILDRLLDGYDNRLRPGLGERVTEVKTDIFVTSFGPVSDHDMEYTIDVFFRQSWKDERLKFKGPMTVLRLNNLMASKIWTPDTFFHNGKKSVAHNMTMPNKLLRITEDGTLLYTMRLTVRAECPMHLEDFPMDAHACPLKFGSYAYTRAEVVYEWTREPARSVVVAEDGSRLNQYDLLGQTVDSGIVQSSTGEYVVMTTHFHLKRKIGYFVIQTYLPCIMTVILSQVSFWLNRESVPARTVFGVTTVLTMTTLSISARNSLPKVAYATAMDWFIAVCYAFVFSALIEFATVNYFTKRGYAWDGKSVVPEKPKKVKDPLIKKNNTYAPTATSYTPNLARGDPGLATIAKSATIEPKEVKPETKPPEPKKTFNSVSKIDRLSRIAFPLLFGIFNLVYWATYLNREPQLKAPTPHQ
Gamma-aminobutyric acid receptor subunit alpha-1/alpha-2/beta-2/gamma-2, sequence (P47870 whole entry): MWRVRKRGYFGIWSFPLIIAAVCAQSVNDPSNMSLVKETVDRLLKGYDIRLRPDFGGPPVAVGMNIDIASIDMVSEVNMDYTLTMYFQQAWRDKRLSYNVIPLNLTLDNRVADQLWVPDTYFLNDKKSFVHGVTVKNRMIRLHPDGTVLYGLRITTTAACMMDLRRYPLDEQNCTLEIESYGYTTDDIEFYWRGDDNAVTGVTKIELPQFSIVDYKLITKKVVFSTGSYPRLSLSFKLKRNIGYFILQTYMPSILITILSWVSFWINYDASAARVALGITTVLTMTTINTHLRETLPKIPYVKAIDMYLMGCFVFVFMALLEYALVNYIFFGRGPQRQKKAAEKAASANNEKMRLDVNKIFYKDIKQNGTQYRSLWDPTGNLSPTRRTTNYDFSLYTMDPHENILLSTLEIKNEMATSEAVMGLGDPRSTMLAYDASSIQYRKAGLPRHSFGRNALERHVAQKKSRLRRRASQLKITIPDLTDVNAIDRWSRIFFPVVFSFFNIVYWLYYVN
Gamma-aminobutyric acid receptor subunit alpha-1/alpha-2/beta-2/gamma-2, sequence (P18507 whole entry): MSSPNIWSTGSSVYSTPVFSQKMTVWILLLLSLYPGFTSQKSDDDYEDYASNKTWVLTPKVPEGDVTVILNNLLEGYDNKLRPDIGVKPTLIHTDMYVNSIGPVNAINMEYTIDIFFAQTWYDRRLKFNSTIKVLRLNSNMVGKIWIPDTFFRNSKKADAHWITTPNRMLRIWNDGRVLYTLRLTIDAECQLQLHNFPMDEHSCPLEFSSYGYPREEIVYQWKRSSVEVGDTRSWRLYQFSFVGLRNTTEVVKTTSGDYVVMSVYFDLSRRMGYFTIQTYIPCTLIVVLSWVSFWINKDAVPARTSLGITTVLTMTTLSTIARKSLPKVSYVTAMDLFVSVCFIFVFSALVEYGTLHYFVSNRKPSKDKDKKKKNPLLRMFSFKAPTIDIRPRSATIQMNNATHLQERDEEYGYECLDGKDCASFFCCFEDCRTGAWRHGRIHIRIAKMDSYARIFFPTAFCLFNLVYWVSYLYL
Gamma-aminobutyric acid receptor subunit alpha-1/alpha-2/beta-2/gamma-2, sequence (P47869 whole entry): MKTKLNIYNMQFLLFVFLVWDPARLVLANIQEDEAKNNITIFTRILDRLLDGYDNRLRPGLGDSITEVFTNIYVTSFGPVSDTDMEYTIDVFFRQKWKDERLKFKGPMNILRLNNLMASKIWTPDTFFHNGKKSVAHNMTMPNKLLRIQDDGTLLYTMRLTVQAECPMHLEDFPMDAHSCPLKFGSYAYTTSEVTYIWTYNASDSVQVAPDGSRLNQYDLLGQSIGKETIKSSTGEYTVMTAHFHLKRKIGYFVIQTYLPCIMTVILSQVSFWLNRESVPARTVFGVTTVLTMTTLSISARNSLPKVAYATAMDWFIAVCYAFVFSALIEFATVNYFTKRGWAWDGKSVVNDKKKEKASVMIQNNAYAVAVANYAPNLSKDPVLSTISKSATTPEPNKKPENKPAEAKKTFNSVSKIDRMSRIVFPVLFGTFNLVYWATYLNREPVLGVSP
T1 sequence (P62813 whole entry): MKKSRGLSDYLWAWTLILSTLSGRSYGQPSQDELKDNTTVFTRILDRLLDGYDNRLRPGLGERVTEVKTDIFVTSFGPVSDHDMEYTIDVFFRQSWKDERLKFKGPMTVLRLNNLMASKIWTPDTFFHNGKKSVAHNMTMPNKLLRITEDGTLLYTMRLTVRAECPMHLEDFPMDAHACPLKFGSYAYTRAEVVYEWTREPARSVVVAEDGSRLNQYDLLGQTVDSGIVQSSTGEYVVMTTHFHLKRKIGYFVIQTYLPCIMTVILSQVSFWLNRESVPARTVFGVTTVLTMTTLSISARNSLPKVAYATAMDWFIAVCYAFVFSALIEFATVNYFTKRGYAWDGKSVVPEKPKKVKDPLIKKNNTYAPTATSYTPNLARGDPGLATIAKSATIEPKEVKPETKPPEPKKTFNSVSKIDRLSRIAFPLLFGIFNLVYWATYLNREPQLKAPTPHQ
cGMP-inhibited 3',5'-cyclic phosphodiesterase 3A, sequence (Q14432 whole entry): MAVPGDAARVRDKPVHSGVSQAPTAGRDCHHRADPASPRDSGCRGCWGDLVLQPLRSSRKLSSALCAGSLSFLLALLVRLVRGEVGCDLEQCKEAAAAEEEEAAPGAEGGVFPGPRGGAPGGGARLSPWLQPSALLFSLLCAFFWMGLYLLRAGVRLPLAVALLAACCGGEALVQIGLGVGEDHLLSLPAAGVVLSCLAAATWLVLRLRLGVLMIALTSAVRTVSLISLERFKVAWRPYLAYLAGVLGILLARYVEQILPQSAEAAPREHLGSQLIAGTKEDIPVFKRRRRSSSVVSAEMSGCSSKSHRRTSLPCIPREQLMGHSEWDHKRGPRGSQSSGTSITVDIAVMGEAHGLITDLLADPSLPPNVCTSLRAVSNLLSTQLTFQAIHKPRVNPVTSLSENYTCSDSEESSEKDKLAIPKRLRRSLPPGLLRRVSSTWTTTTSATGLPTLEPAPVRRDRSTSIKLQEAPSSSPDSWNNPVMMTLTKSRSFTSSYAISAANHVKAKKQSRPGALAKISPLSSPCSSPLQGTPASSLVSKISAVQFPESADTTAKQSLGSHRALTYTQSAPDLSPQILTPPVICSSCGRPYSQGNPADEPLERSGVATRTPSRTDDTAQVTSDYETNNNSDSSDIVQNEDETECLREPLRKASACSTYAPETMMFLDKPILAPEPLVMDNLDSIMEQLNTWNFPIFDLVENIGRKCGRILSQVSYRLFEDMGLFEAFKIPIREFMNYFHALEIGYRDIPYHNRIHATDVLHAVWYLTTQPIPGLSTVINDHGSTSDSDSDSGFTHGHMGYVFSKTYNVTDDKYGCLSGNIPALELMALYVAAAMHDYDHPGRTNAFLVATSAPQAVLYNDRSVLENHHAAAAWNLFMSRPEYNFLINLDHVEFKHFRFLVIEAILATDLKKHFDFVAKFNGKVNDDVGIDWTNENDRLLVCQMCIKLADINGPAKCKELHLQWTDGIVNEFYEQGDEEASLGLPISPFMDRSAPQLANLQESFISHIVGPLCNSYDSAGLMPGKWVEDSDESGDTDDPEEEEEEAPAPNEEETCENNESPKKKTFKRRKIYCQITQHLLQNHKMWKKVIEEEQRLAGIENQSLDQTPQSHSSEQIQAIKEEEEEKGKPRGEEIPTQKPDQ
Sodium-dependent noradrenaline transporter, sequence (P23975 whole entry): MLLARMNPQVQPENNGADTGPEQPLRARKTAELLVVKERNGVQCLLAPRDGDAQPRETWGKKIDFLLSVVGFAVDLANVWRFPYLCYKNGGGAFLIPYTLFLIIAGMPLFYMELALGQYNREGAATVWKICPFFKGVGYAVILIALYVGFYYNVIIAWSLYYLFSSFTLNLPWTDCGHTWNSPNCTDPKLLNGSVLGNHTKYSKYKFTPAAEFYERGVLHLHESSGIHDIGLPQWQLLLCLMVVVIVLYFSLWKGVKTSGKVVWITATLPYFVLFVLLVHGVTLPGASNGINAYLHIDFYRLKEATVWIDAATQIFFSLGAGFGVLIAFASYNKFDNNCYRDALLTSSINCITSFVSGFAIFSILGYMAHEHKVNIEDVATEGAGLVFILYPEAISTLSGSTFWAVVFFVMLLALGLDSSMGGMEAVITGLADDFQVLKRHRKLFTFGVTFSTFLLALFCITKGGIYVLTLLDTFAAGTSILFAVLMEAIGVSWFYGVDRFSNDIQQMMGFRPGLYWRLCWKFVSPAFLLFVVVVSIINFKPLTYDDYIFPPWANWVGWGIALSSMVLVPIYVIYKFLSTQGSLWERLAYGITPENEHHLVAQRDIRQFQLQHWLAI
Adenosine receptor A2a, sequence (P29274 whole entry): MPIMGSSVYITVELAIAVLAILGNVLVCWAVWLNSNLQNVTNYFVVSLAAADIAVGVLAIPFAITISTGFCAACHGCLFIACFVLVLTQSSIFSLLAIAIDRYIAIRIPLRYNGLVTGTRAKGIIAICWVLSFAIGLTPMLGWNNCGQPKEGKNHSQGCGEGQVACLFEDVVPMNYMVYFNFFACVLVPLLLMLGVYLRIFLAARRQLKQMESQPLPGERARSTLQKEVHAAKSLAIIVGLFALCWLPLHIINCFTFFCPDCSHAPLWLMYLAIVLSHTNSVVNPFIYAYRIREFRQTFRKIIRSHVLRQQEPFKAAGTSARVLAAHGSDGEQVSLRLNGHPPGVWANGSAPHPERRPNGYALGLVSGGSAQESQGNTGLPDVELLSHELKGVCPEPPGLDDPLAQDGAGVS
D(3) dopamine receptor, sequence (P35462 whole entry): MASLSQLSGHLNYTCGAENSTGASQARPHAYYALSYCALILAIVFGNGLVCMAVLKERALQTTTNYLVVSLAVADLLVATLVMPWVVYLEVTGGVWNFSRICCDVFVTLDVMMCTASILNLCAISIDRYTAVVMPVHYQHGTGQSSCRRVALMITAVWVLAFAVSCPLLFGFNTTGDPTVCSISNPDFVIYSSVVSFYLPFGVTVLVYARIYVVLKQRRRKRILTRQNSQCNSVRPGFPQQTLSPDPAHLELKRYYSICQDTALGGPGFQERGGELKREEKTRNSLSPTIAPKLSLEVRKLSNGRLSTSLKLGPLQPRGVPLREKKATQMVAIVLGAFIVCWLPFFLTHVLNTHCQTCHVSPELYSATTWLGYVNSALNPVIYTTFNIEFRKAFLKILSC

SMILES | AC50 [1] | AC50 [2] | AC50 [3] | AC50 [4] | also measured
Cc1c(O)cccc1C(=O)N[C@@H](CSc1ccccc1)[C@H](O)CN1C[C@H]2CCCC[C@H]2C[C@H]1C(=O)NC(C)(C)C | > 30 µM | > 30 µM | – | – | –
Nc1ccc(C(=O)O)cc1 [AMINOBENZOIC ACID] | – | > 30 µM | > 30 µM | > 30 µM | –
CCCC1C(=O)N2C(N(C)C)=Nc3ccc(C)cc3N2C1=O (stereo not drawn) [APAZONE] | > 30 µM | – | > 30 µM | > 30 µM | –
CCS(=O)(=O)N1CC(CC#N)(n2cc(-c3ncnc4[nH]ccc34)cn2)C1 [BARICITINIB] | – | > 30 µM | > 10 µM | > 30 µM | –
O=C1CN=C(c2ccccc2)c2c(sc3c2CCCC3)N1 [BENTAZEPAM] | – | – | > 30 µM | > 30 µM | –
O=C(O)CCCN1CCC(O[C@@H](c2ccc(Cl)cc2)c2ccccn2)CC1 [BEPOTASTINE] | – | > 30 µM | > 30 µM | > 30 µM | –
CN(Cc1cc(Br)cc(Br)c1N)C1CCCCC1 [BROMHEXINE] | > 30 µM | – | – | – | –
CCCCN(CCCC)CCCOC(=O)c1ccc(N)cc1 [BUTACAINE] | – | > 30 µM | > 30 µM | > 30 µM | –
NCc1ccccc1CC(=O)N[C@@H]1C(=O)N2C(C(=O)O)=C(CSc3nnnn3CC(=O)O)CS[C@H]12 [CEFORANIDE] | – | > 30 µM | > 10 µM | > 30 µM | –
O=C(c1ccc(F)c(F)c1Nc1ccc(I)cc1F)N1CC(O)([C@@H]2CCCCN2)C1 [COBIMETINIB] | – | > 30 µM | – | 17.4 µM | –
CN1CCN(C(c2ccccc2)c2ccccc2)CC1 [CYCLIZINE] | > 30 µM | – | – | – | –
NS(=O)(=O)c1cc2c(cc1Cl)NC(C1CC3C=CC1C3)NS2(=O)=O (stereo not drawn) [CYCLOTHIAZIDE] | – | > 30 µM | 17.6 µM | > 30 µM | –
C[C@@H]1C[C@H]2[C@@H]3CCC4=CC(=O)C=C[C@]4(C)[C@@]3(F)[C@@H](O)C[C@]2(C)[C@H]1C(=O)CO [DESOXIMETASONE] | > 30 µM | – | – | – | –
COc1ccc(-c2cc(=O)c3c(O)cc(O[C@@H]4O[C@H](CO[C@@H]5O[C@@H](C)[C@H](O)[C@@H](O)[C@H]5O)[C@@H](O)[C@H](O)[C@H]4O)cc3o2)cc1O [DIOSMIN] | > 30 µM | – | > 30 µM | > 30 µM | –
CCOc1ccc(/C=C2\NCCc3cc(OCC)c(OCC)cc32)cc1OCC [DROTAVERINE] | > 30 µM | – | 12.3 µM | > 30 µM | –
CC1=NN(c2ccccc2)C(=O)C1 [EDARAVONE] | > 30 µM | > 30 µM | – | – | –
CCOC(=O)C(c1c(O)c2ccccc2oc1=O)c1c(O)c2ccccc2oc1=O [ETHYL BISCOUMACETATE] | – | > 30 µM | > 30 µM | > 30 µM | –
Cc1nc(-c2ccc(OCC(C)C)c(C#N)c2)sc1C(=O)O [FEBUXOSTAT] | – | > 30 µM | 16.1 µM | > 30 µM | –
O=C1NCC2(CCN(CCc3ccccc3)CC2)O1 [FENSPIRIDE] | – | 25.2 µM | > 30 µM | > 30 µM | –

SMILES | AC50 [1] | AC50 [2] | AC50 [3] | AC50 [4] | also measured
C[C@@H]1C[C@H]2[C@@H]3C[C@H](F)C4=CC(=O)C=C[C@]4(C)[C@@]3(F)[C@@H](O)C[C@]2(C)[C@@]1(O)C(=O)COC(=O)C(C)(C)C [FLUMETHASONE PIVALATE] | > 30 µM | – | > 30 µM | > 30 µM | –
C[C@@H]1C[C@H]2[C@@H]3C[C@H](F)C4=CC(=O)C(Cl)=C[C@]4(C)[C@@]3(F)[C@@H](O)C[C@]2(C)[C@@]1(O)C(=O)CO [HALOMETASONE] | – | > 30 µM | 13.1 µM | > 30 µM | –
Oc1c(I)cc(I)c2cccnc12 [IODOQUINOL] | > 30 µM | – | – | – | –
CCC(Cc1c(I)cc(I)c(N)c1I)C(=O)O (stereo not drawn) [IOPANOIC ACID] | – | > 30 µM | 14.5 µM | > 30 µM | –
O=C(NC1CCN(CCCCC2(C(=O)NCC(F)(F)F)c3ccccc3-c3ccccc32)CC1)c1ccccc1-c1ccc(C(F)(F)F)cc1 [LOMITAPIDE] | – | > 30 µM | 3.86 µM | > 30 µM | –
CCOC(=O)CC(SP(=S)(OC)OC)C(=O)OCC (stereo not drawn) [MALATHION] | – | > 30 µM | 27.1 µM | > 30 µM | –
CCC1(c2cccc(O)c2)CCCCN(C)C1 (stereo not drawn) [MEPTAZINOL] | – | > 30 µM | > 30 µM | > 30 µM | –
CC(=O)OC(C)C[N+](C)(C)C (stereo not drawn) [METHACHOLINE] | > 30 µM | – | – | 0.0079 µM | –
C1N2CN3CN1CN(C2)C3 [METHENAMINE] | – | > 30 µM | > 30 µM | > 30 µM | –
O=[N+]([O-])c1cncn1CCN1CCOCC1 [NIMORAZOLE] | – | > 30 µM | > 30 µM | > 30 µM | –
NC(=O)c1cccc2cn(-c3ccc([C@@H]4CCCNC4)cc3)nc12 [NIRAPARIB] | – | > 30 µM | > 30 µM | > 30 µM | –
COc1ccc2c(c1)OC(C)(C)C(c1ccccc1)C2c1ccc(OCCN2CCCC2)cc1 (stereo not drawn) [ORMELOXIFENE] | > 10 µM | – | – | 10.5 µM | –
Oc1cccc2cccnc12 [OXYQUINOLINE] | > 30 µM | – | – | – | –
Nc1nc2c(ncn2CCC(CO)CO)c(=O)[nH]1 [PENCICLOVIR] | > 30 µM | – | – | – | –
O=C(O)CCn1c2c(c3ccccc31)C[C@H](NS(=O)(=O)c1ccc(F)cc1)CC2 [RAMATROBAN] | – | > 30 µM | > 30 µM | > 30 µM | AC50 [5]: > 30 µM; AC50 [6]: > 10 µM; AC50 [7]: > 30 µM; AC50 [8]: > 10 µM; AC50 [9]: > 10 µM; AC50 [10]: > 30 µM; AC50 [11]: > 30 µM; AC50 [12]: > 30 µM; AC50 [13]: > 30 µM; AC50 [14]: > 10 µM; AC50 [15]: > 10 µM; AC50 [16]: > 10 µM; AC50 [17]: > 30 µM
CCO[C@@H](Cc1ccc(OCCn2c(C)ccc2-c2ccc(SC)cc2)cc1)C(=O)O [SAROGLITAZAR] | > 3 µM | – | – | 18.7 µM | –
CCC1C(C)=NN=C(c2ccc(OC)c(OC)c2)c2cc(OC)c(OC)cc21 (stereo not drawn) [TOFISOPAM] | – | > 30 µM | 25.3 µM | > 30 µM | –
COc1cc(NCc2ccc3nc(N)nc(N)c3c2C)cc(OC)c1OC [TRIMETREXATE] | – | > 30 µM | 12.3 µM | > 30 µM | –
COc1cc2c(cc1OC)[C@H]1C[C@@H](OC(=O)[C@@H](N)C(C)C)[C@H](CC(C)C)CN1CC2 [VALBENAZINE] | – | > 30 µM | > 10 µM | > 30 µM | –
